Laboratory results as given in patent publication US8247211B2, “Glycopeptide antibiotics” (American Cyanamid Company, priority 2001, dated 2012).
In brackets after ≈: the same amount, converted by molar mass. Blank lines part the entries; values can stand above or below the molecule they belong to.

What was measured:
Test in all cases: In vitro antibacterial evaluation: minimum inhibitory concentration (MIC), broth dilution method
Type in all cases: cell-based
Enterococcus sp. = tested on: Enterococcus sp.
Procedure: (§1) The minimum inhibitory concentration (MIC), the lowest concentration of the antibiotic which inhibits growth of the test organism, is determined by the broth dilution method using Muller-Hinton II […] (Baltimore Biological Laboratories) following the recommendations of the National Committee for Clinical Laboratory Standards [Methods for dilution antimicrobial susceptibility tests for bacteria that grow aerobically, approved standard M7-A2, National Committee for Clinical Laboratory Standards, Villanova, Pa].
(§2) An inoculum level of 5×10^5 CFU/mL, and a range of antibiotic concentrations (64-0.06 μg/mL) is used. […] The test organisms include a spectrum of Gram-positive bacteria comprised of Staphylococcus sp., Streptococcus sp. and Enterococcus sp. These organisms include recent clinical isolates that are resistant to methicillin, penicillin and/or vancomycin.

Escherichia coli = tested on: Escherichia coli
Procedure: as §1, §2

Staphylococcus sp. = details: for MIC Staphylococcus aureus-SMITH (GC 4543): strain GC 4543; for MIC Staphylococcus haemolyticus (GC 4546): strain GC 4546; for MIC Coagulase Negative Staphylococcus (GC 4547): strain GC 4547; for MIC Coagulase Negative Staphylococcus (GC 4548): strain GC 4548; for MIC Coagulase Negative Staphylococcus (GC 4549): strain GC 4549; for MIC Coagulase Negative Staphylococcus (GC 4551): strain GC 4551; for MIC Coagulase Negative Staphylococcus (ID-3941): strain ID-3941
Procedure: as §1, §2

Streptococcus sp. = tested on: Streptococcus sp.
Procedure: as §1, §2

[1] = broth dilution, 18 hours at 35° C.
[2] = broth dilution, 5×10^5 CFU/mL, 18 hours at 35° C.

MIC Enterococcus faecalis (ATCC 29212) (Enterococcus sp.; strain ATCC 29212): 16 µg/mL (≈ 11.3 µM)
MIC Enterococcus faecalis (GC 2242) (Enterococcus sp.; strain GC 2242): 16 µg/mL (≈ 11.3 µM)
MIC Enterococcus faecium (GC 2243) (Enterococcus sp.; strain GC 2243): 16 µg/mL (≈ 11.3 µM)
MIC Enterococcus faecalis (GC 4552) (Enterococcus sp.; strain GC 4552): 32 µg/mL (≈ 22.5 µM)
MIC Enterococcus faecalis (GC 4553) (Enterococcus sp.; strain GC 4553): 16 µg/mL (≈ 11.3 µM)
MIC Enterococcus faecalis (GC 4554) (Enterococcus sp.; strain GC 4554): 32 µg/mL (≈ 22.5 µM)
MIC Enterococcus faecium (GC 4556) (Enterococcus sp.; strain GC 4556): 16 µg/mL (≈ 11.3 µM)
MIC Enterococcus faecium (GC 4557) (Enterococcus sp.; strain GC 4557): 4 µg/mL (≈ 2.81 µM)
MIC Enterococcus avium (GC 4558) (Enterococcus sp.; strain GC 4558): 16 µg/mL (≈ 11.3 µM)
MIC Escherichia coli (ATCC 25922) (Escherichia coli; strain ATCC 25922): >64 µg/mL
MIC Staphylococcus aureus (ATCC 29213) (Staphylococcus sp.; [1]): 4 µg/mL (≈ 2.81 µM)
MIC Staphylococcus aureus (GC 1131) (Staphylococcus sp.; [1]): 4 µg/mL (≈ 2.81 µM)
MIC Staphylococcus aureus (GC 4541) (Staphylococcus sp.; [1]): 4 µg/mL (≈ 2.81 µM)
MIC Staphylococcus aureus (GC 4542) (Staphylococcus sp.; [1]): 4 µg/mL (≈ 2.81 µM)
MIC Staphylococcus aureus (GC 4544) (Staphylococcus sp.; [1]): 4 µg/mL (≈ 2.81 µM)
MIC Staphylococcus aureus (GC 4545) (Staphylococcus sp.; [1]): 4 µg/mL (≈ 2.81 µM)
MIC Staphylococcus aureus-SMITH (GC 4543) (Staphylococcus sp.; 18 hours at 35° C.): 4 µg/mL (≈ 2.81 µM)
MIC Staphylococcus aureus-SMITH (GC 4543) (Staphylococcus sp.; [1]): 4 µg/mL (≈ 2.81 µM)
MIC Coagulase Negative Staphylococcus (GC 4547) (Staphylococcus sp.): 4 µg/mL (≈ 2.81 µM)
MIC Coagulase Negative Staphylococcus (GC 4547) (Staphylococcus sp.; [1]): 4 µg/mL (≈ 2.81 µM)
MIC Coagulase Negative Staphylococcus (GC 4548) (Staphylococcus sp.): 4 µg/mL (≈ 2.81 µM)
MIC Coagulase Negative Staphylococcus (GC 4548) (Staphylococcus sp.; [1]): 4 µg/mL (≈ 2.81 µM)
MIC Coagulase Negative Staphylococcus (GC 4549) (Staphylococcus sp.): 2 µg/mL (≈ 1.41 µM)
MIC Coagulase Negative Staphylococcus (GC 4549) (Staphylococcus sp.; [1]): 2 µg/mL (≈ 1.41 µM)
MIC Coagulase Negative Staphylococcus (GC 4551) (Staphylococcus sp.): 8 µg/mL (≈ 5.63 µM)
MIC Coagulase Negative Staphylococcus (GC 4551) (Staphylococcus sp.; [1]): 8 µg/mL (≈ 5.63 µM)
MIC Coagulase Negative Staphylococcus (ID-3941) (Staphylococcus sp.): 2 µg/mL (≈ 1.41 µM)
MIC Coagulase Negative Staphylococcus (ID-3941) (Staphylococcus sp.; [1]): 2 µg/mL (≈ 1.41 µM)
MIC Streptococcus agalactiae (GC 4564) (Streptococcus sp.; strain GC 4564): 2 µg/mL (≈ 1.41 µM)
MIC Streptococcus pneumoniae (GC 4565) (Streptococcus sp.; strain GC 4565): <0.5 µg/mL
MIC Streptococcus pyogenes (ID-3187) (Streptococcus sp.; strain ID-3187): 1 µg/mL (≈ 0.703 µM)
Compound: CCCC(CCC)C(=O)OCC1OC(Oc2ccc(CC3NC(=O)C(C(C)c4ccccc4)NC(=O)CNC(=O)C(CO)NC(=O)C(C(O)C4CNC(=N)N4C4OC(CO)C(O)C(O)C4O)NC(=O)C(C(O)C4CNC(=N)N4)NC3=O)cc2)C(O)C(O)C1OC1OC(CO)C(O)C(O)C1O (stereo not drawn) [Example 99b, Cyclo[glycyl-β-methylphenylalanyl-O-(4-O-hexopyranosyl-6-O-(2-propylpentanoyl)hexopyranosyl]tyrosyl-3-(2-iminoimidazolidin-4-yl)seryl-3-(3-hexopyranosyl-2-iminoimidazolidin-4-yl)serylseryl]]
MIC Staphylococcus haemolyticus (GC 4546) (Staphylococcus sp.): 4 µg/mL (≈ 2.81 µM)
MIC Staphylococcus haemolyticus (GC 4546) (Staphylococcus sp.; [1]): 4 µg/mL (≈ 2.81 µM)

MIC Enterococccus avium (GC 4558) (Enterococcus sp.; [2]): 32 µg/mL (≈ 22.4 µM)
MIC Enterococccus faecalis (ATCC 29212) (Enterococcus sp.; [2]): 32 µg/mL (≈ 22.4 µM)
MIC Enterococccus faecalis (GC 4552) (Enterococcus sp.; [2]): 64 µg/mL (≈ 44.8 µM)
MIC Enterococccus faecalis (GC 4553) (Enterococcus sp.; [2]): 32 µg/mL (≈ 22.4 µM)
MIC Enterococccus faecalis (GC 4554) (Enterococcus sp.; [2]): 64 µg/mL (≈ 44.8 µM)
MIC Enterococccus faecium (GC 2243) (Enterococcus sp.; [2]): 32 µg/mL (≈ 22.4 µM)
MIC Enterococccus faecium (GC 4556) (Enterococcus sp.; [2]): 32 µg/mL (≈ 22.4 µM)
MIC Enterococccus faecium (GC 4557) (Enterococcus sp.; [2]): 2 µg/mL (≈ 1.4 µM)
MIC Enterococcus faecalis (GC 2242) (Enterococcus sp.; [2]): 16 µg/mL (≈ 11.2 µM)
MIC Escherichia coli (ATCC 25922) (Escherichia coli; 5×10^5 CFU/mL, 18 hours at 35° C.): >64 µg/mL
MIC Staphylococcus aureus (ATCC 29213) (Staphylococcus sp.; strain ATCC 29213): 4 µg/mL (≈ 2.8 µM)
MIC Staphylococcus aureus (GC 1131) (Staphylococcus sp.; strain GC 1131): 4 µg/mL (≈ 2.8 µM)
MIC Staphylococcus aureus (GC 4541) (Staphylococcus sp.; strain GC 4541): 4 µg/mL (≈ 2.8 µM)
MIC Staphylococcus aureus (GC 4542) (Staphylococcus sp.; strain GC 4542): 8 µg/mL (≈ 5.6 µM)
MIC Staphylococcus aureus-SMITH (GC 4543) (Staphylococcus sp.; 18 hours at 35° C.): 4 µg/mL (≈ 2.8 µM)
MIC Staphylococcus aureus-SMITH (GC 4543) (Staphylococcus sp.; [1]): 4 µg/mL (≈ 2.8 µM)
MIC Staphylococcus aureus (GC 4544) (Staphylococcus sp.; strain GC 4544): 8 µg/mL (≈ 5.6 µM)
MIC Staphylococcus aureus (GC 4545) (Staphylococcus sp.; strain GC 4545): 4 µg/mL (≈ 2.8 µM)
MIC Coagulase Negative Staphylococcus (GC 4547) (Staphylococcus sp.): 2 µg/mL (≈ 1.4 µM)
MIC Coagulase Negative Staphylococcus (GC 4547) (Staphylococcus sp.; [1]): 2 µg/mL (≈ 1.4 µM)
MIC Coagulase Negative Staphylococcus (GC 4548) (Staphylococcus sp.): 2 µg/mL (≈ 1.4 µM)
MIC Coagulase Negative Staphylococcus (GC 4548) (Staphylococcus sp.; [1]): 2 µg/mL (≈ 1.4 µM)
MIC Coagulase Negative Staphylococcus (GC 4549) (Staphylococcus sp.): 1 µg/mL (≈ 0.7 µM)
MIC Coagulase Negative Staphylococcus (GC 4549) (Staphylococcus sp.; [1]): 1 µg/mL (≈ 0.7 µM)
MIC Coagulase Negative Staphylococcus (GC 4551) (Staphylococcus sp.): 8 µg/mL (≈ 5.6 µM)
MIC Coagulase Negative Staphylococcus (GC 4551) (Staphylococcus sp.; [1]): 8 µg/mL (≈ 5.6 µM)
MIC Coagulase Negative Staphylococcus (ID-3941) (Staphylococcus sp.): 1 µg/mL (≈ 0.7 µM)
MIC Coagulase Negative Staphylococcus (ID-3941) (Staphylococcus sp.; [1]): 1 µg/mL (≈ 0.7 µM)
MIC Streptococcus agalactiae (GC 4564) (Streptococcus sp.; [2]): 2 µg/mL (≈ 1.4 µM)
MIC Streptococcus pneumoniae (GC 4565) (Streptococcus sp.; [2]): <0.5 µg/mL
MIC Streptococcus pyogenes (ID-3187) (Streptococcus sp.; [2]): 2 µg/mL (≈ 1.4 µM)
Compound: CC(c1ccccc1)C1NC(=O)CNC(=O)C(CO)NC(=O)C(C(O)C2CNC(=N)N2C2OC(CO)C(O)C(O)C2O)NC(=O)C(C(O)C2CNC(=N)N2)NC(=O)C(Cc2ccc(OC3OC(COC(=O)OCc4ccccc4)C(OC4OC(CO)C(O)C(O)C4O)C(O)C3O)cc2)NC1=O (stereo not drawn) [Example 101, Cyclo[glycyl-β-methylphenylalanyl-O-[4-O-hexopyranosyl-6-O-[(phenylmethoxy)carbonyl]-hexopyranosyl]tyrosyl-3-(2-iminoimidazolidin-4-yl)seryl-3-(3-hexopyranosyl-2-iminoimidazolidin-4-1/1)serylseryl]]
MIC Staphylococcus haemolyticus (GC 4546) (Staphylococcus sp.): 4 µg/mL (≈ 2.8 µM)
MIC Staphylococcus haemolyticus (GC 4546) (Staphylococcus sp.; [1]): 4 µg/mL (≈ 2.8 µM)
